This data set can be described thus: studies of the concentration at which PGG of a given purity may be safely delivered. The following applies: depends on purity of the PGG; toxic impurities gallic acid and methyl gallate. An excerpt:
The concentrations of PGG which may be safely delivered to a patient may be generally proportional to the purity of the PGG. For example, gallic acid, depicted in FIG. 1B, and methyl gallate, depicted in FIG. 1C, are common cytotoxic impurities which may be removed from a source batch of PGG during the purification process. Eliminating the presence of or reducing the concentration of toxic impurities from the delivered PGG may allow higher concentrations of the PGG to be delivered due to the mitigation of the toxic side effects of impurities commonly found in isolated PGG. For instance, studies have shown that substantially 100% pure PGG may be safely delivered at concentrations up to approximately 0.330% (w/v), 95% pure PGG may be safely delivered at concentrations up to approximately 0.125% (w/v), and 85% pure PGG may be safely delivered at concentrations up to approximately 0.06% (w/v). Delivery of PGG in higher concentrations may enhance the amount of uptake of PGG by the target tissue which may increase the efficacy of the PGG treatment. Delivery of PGG in higher concentrations may increase the rate of uptake of PGG by the tissue allowing the same amount of uptake in shorter delivery times. Reducing or minimizing the delivery time may be advantageous for reducing the overall treatment time, and particularly the duration of time for which a blood vessel, such as the aorta, is potentially occluded, as described elsewhere herein. Minimization of the treatment time and particularly the duration of blood occlusion may improve the safety and convenience of the treatment procedure and improve patient outcomes.

On to “1,2,3,4,6-pentagalloyl glucose [85% pure PGG]”, for which the “concentration up to which PGG may be safely delivered” value was ≤ 0.06 % (w/v).
Under “1,2,3,4,6-pentagalloyl glucose [substantially 100% pure PGG]” stands ≤ 0.330 % (w/v); under “1,2,3,4,6-pentagalloyl glucose [95% pure PGG]”, ≤ 0.125 % (w/v).

The values above are taken from patent US11331102B2, “Purified pentagalloyl glucose and devices for delivery” (Nectero Medical, Inc., priority 2018, dated 2022).
